Experimental data taken from US12594282B2, “Use of small molecule compounds in the treatment of diseases mediated by lung epithelial cell injury and/or vascular endothelial cell injury” (Guangzhou Cellprotek Pharmaceutical Co., Ltd., priority 2020, dated 2026).
Peptide text beside a SMILES is read from it. * marks the point of attachment. Cbz = O=C(OCc1ccccc1)*

Key:
[1] = tested on: human alveolar epithelial A549 cells; conditions: A549 cells in vitro; cited from earlier work
PFKFB3 = conditions: mouse model of LPS-induced pulmonary fibrosis; cited from earlier work
NR4A3 [2] = test: NR4A3 protein expression under OGD-R, RAOEC (Western blot, immunofluorescence); assay type: cell-based, rat; conditions: for degradation of NR4A3 during restoration injury: given together with CHX 100 μM, MG132 10, 30, 100 nM, CQ 10, 30, 100 μM
Method: (§1) HUVEC cells were cultured in modified DMEM medium containing 10% fetal bovine serum. When the cells reached about 80% confluence, the cells were digested with 0.25% trypsin, and then pipetted evenly with modified DMEM containing 10% […]. The cell concentration was adjusted to 1×10^5 cells/mL, and the cells were seeded at 400 uL/well in a 24-well plate, and the experiment was carried out when the cells grew to about 70% confluence. RAOEC cells were cultured in high-glucose DMEM medium containing 10% fetal bovine serum, and the seeding conditions were the same as those of HUVEC. During the OGD-R injury treatment, the hypoxia workstation was set to have an oxygen concentration of 1% (1% O2, 5% CO2, 94% N2), a temperature of 37° C., and a humidity of 85%. A sugar-free DMEM medium was placed in the hypoxia workstation for pre-hypoxia for 3 hours. The medium in the culture plate was aspirated, and the plate was washed twice with preheated sugar-free DMEM medium, and 100 uL of sugar-free DMEM medium was added to each well. The culture plate was placed in the hypoxia workstation, and 300 uL of pre-hypoxic sugar-free DMEM medium was added to each well, and then the culture plate was placed in the hypoxia workstation for additional hypoxia for 4 hours. Restoration was then performed. The culture plate was taken out, and the sugar-free DMEM medium was replaced with 400 uL of normal medium containing 10% fetal bovine serum, and then the plate was placed in a 37° C. 5% CO2 cell incubator for culturing for 24 hours or a specified time period. For the cells in the normal group, it was only replaced with 400 uL of new normal medium containing 10% fetal bovine serum. […]
(§2) The cells were washed twice with pre-cooled PBS, then scraped off with a cell scraper and transferred to a 1.5 mL centrifuge tube, and centrifugation was performed at 4° C. and 1000 g for 5 minutes. […] Each protein sample was then quantified using the BCA protein quantification kit. After protein quantification, protein lysis buffer was used to adjust the protein concentration of each sample to be consistent with the protein sample with the lowest concentration, and then each protein sample was sufficiently mixed with 5× protein loading buffer at a ratio of 4:1. […]

NR4A3 [3] = test: NR4A3 protein expression under OGD-R, HUVEC (Western blot, immunofluorescence); assay type: cell-based, human; conditions: for degradation of NR4A3 during restoration injury: given together with CHX 100 μM, MG132 10, 30, 100 nM, CQ 10, 30, 100 μM
Method: as §1, §2

NR4A3 [4] = test: NR4A3 ubiquitination after OGD-R in vascular endothelial cells (immunoprecipitation with anti-ubiquitin antibodies); assay type: cell-based; conditions: YC-6 10 μM; MG132 100 nM; given at restoration
Method: as §1
The cells were washed twice with pre-cooled PBS, then scraped off with a cell scraper and transferred to a 1.5 mL centrifuge tube, and centrifugation was performed at 4° C. and 1000 g for 5 minutes. […] Each protein sample was then quantified using the BCA protein quantification kit. After protein quantification, IP lysis buffer was used to adjust the protein concentration of each sample to 1 mg/mL. […]

[5] = 100 μM given during restoration after OGD

For `O=C(/C=C/c1cccnc1)c1ccncc1` [3PO], the “LPS-induced apoptosis, inflammatory cytokine production, enhanced glycolytic flux and increased ROS” value [1] is given as “reversed” and the “upregulation of PFKFB3 expression and enhanced aerobic glycolysis” value (PFKFB3) is given as “could reverse the significant upregulation of PFKFB3 expression and enhanced aerobic glycolysis”.
For `CCN(CC)CCCC(C)Nc1ccnc2cc(Cl)ccc12` (stereo not drawn) [CQ, Chloroquine], the “degradation of NR4A3 during restoration injury” value (“degradation” below) (NR4A3 [2]) was “did not significantly inhibit the degradation of NR4A3” and the “degradation” value (NR4A3 [3]) was “did not significantly inhibit the degradation of NR4A3”.
With `C[C@@H]1C[C@@H]([C@H](O)CC2CC(=O)NC(=O)C2)C(=O)[C@@H](C)C1` [CHX, Cycloheximide] the “NR4A3 protein level during restoration” value (NR4A3 [2]; [5]) was “almost complete depletion of NR4A3 protein” and the “NR4A3 protein level during restoration” value (NR4A3 [3]; [5]) was “almost complete depletion of NR4A3 protein”.
With `CC(C)C[C@@H](C=O)NC(=O)[C@H](CC(C)C)NC(=O)[C@H](CC(C)C)NC(=O)OCc1ccccc1` [MG132] (Cbz-Leu-Leu-Leu-aldehyde) the “degradation” value (NR4A3 [2]) was “could inhibit the degradation of NR4A3”, the “degradation” value (NR4A3 [3]) was “could inhibit the degradation of NR4A3” and the “ubiquitination modification of NR4A3 induced by restoration” value (NR4A3 [4]) was “increase of ubiquitinated NR4A3”.
